Source: patent US5721210A, “Cyclic cell adhesion modulation compounds” (priority 1995, dated 1998)
Where two headings read alike, the source gives them in different places. Bridge positions count the residues as written; N and C are the ends. Square brackets hold non-standard residues; d marks the D form. Peptide text beside a SMILES is read from it. * marks the point of attachment. Acetyl(1-adamantyl) = O=C(CC12CC3CC(CC(C3)C1)C2)*; 2Thi = N[C@@H](Cc1cccs1)C(=O)O; 4Amb = NCc1ccc(C(=O)O)cc1

Columns and labels:
[1] = system: Jurkat T-cells adhering to IL-1 stimulated human umbilical vein endothelial cell monolayers; test: Jurkat-endothelial cell adhesion assay (Cell Adhesion Inhibition Assay II); assay type: cell-based; conditions: for 10 μM% (percentage inhibition at 10 μM): 10 μM peptide; for 10 μM% (percentage inhibition at 10 μM) / 200 μM% (percentage inhibition at 200 μM): Jurkat cells on IL-1 stimulated endothelial monolayers, 20 min at 37° C.; for 200 μM% (percentage inhibition at 200 μM): 200 μM peptide
Protocol: The following assay established the activity of the present compound in inhibiting cell-cell adhesion in a representative in vitro system. This assay measures the adhesive interactions of T-cells to endothelial cell monolayers in the presence of a test compound. The test compound is added in increasing concentrations with T-cells and this is added to endothelial cell monolayers. The plates are incubated, washed and the percentage of attached cells is quantitated.
Human umbilical vein endothelial cells were purchased from Clonetics (San Diego, Calif.) at passage number 2. The cells were grown on 0.5% porcine skin gelatin pre-coated flasks (Sigma, St. Louis, Mo.) in EGM-UV media (Clonetics, San Diego, Calif.) supplemented with 10% fetal bovine serum. Cells were refed every 2-3 days reaching confluence by day 4 to 6. […] The endothelial cells were not used following passage 14-15.
The T-cell line Jurkat was obtained from American Type Tissue Culture Collection (Rockville, Md.). The cells were cultured in RPMI media containing 10% fetal calf serum. The cells were washed twice with Hank's Balanced Salt Solution (HBSS) and resuspended in Dulbecco's […] Eagle's Media (DMEM) containing 2.5 mg/ml Human Serum Albumin (HSA). The Jurkat cells (1×10^6 cells/ml) were stained with 10 μg/ml fluorescein diacetate (Sigma, St. Louis, Mo.) in HSSS containing 5% fetal calf serum. The cells were stained for 15 minutes in the dark at room temperature, washed 2 times, and resuspended in a DMEM-HSA solution.
Confluent endothelial monolayers grown in 96-well tissue culture plates were stimulated for 4 hours at 37° C. with 0.1 ng/ml (^~ 50 U/ml) recombinant IL-1 (Amgen, Thousand Oaks, Calif.). Following this incubation, the monolayers were washed twice with HBSS and 0.1 ml of DMEM-HSA solution was added. Jurkat cells (5×10^5 cells) were combined with appropriate concentrations of a peptide to be tested and 0.1 ml of the Jurkat-peptide mixture were added to the endothelial cell monolayers. Generally, 200 and 10 μM peptide concentrations were tested. […] The plates were placed on ice for 5 minutes to allow for Jurkat cell settling and then incubated at 37° C. for 20 minutes. Following this incubation, the monolayers were washed twice with PBS containing 1 mM calcium chloride and 1 mM magnesium chloride and the plates were read using a Pandex Fluorescence Concentration Analyzer (Baxter, Mundelein, Ill.). Fluorescence in each well was measured as arbitrary fluorescence units and percent adhesion in the absence of a peptide was adjusted to 100% and the percentage adhesion in the presence of the peptide was calculated. Monolayers were also fixed in 3% paraformaldehyde and evaluated microscopically to verify adhesion.

[2] = system: U937 cells (fibronectin receptor) adhering to fibronectin-coated wells
[3] = read-out: IC50 μM, U937 cells on fibronectin-coated wells, 60 min at 37° C., concentration at which adhesion is inhibited to 50% of control

Row | Molecule | IC50 [2, 3] | further results
1 | (FMOC)-RC*(DTC)C* [Peptide 156] | – | 10 μM% (percentage inhibition at 10 μM) [1]: 90%; 200 μM% (percentage inhibition at 200 μM) [1]: 32%
2 | N=C(N)NCCC[C@@H]1NC(=O)CNC(=O)C[C@@H](C(N)=O)NC(=O)[C@@H]2CCCN2C(=O)[C@H](CO)NC(=O)[C@H](CC(=O)O)NC(=O)CNC1=O [Peptide 22, G*RGDSPD*-NH2] (GRGDSPD-NH2; lactam N-7) | 112 µM | –
3 | (CPA)-RC*D-(3-thioPro)C* [Peptide 110] | 8 µM | –
4 | (1-FCA)RC*D(TTC)C* [Peptide 132] | 92 µM | –
5 | N=C(N)NCCC[C@@H]1NC(=O)CNC(=O)C[C@@H](C(N)=O)NC(=O)[C@@H]2CCCN2C(=O)[C@H](CO)NC(=O)[C@H](CC(=O)O)NC(=O)CNC1=O [Peptide 47, G*RGDSPD*-NH2] (GRGDSPD-NH2; lactam N-7) | 134 µM | –
6 | COc1ccc(C[C@@H]2NC(=O)[C@H](CC(=O)O)NC(=O)CNC(=O)[C@H](CCCNC(=N)N)NC(=O)[C@@H](NC(=O)CNC(=O)CNC(=O)CC34CC5CC(CC(C5)C3)C4)CSSC[C@@H](C(N)=O)NC(=O)[C@@H]3CCCN3C2=O)cc1 [Peptide 96, (Ada)-GGC*RGDY(p-OCH3 -Tyr)PC*-NH2] ({Acetyl(1-adamantyl)}-GGCRGDY(Me)PC-NH2; disulfide 3-9) | 9 µM | –
7 | N=C(N)NCCC[C@@H]1NC(=O)[C@@H](N)CSSC[C@@H](C(=O)O)NC(=O)[C@H](Cc2cccs2)NC(=O)[C@H](CC(=O)O)NC(=O)CNC1=O [Peptide 70, C*RGD(TA)C*] (H-CRGD[2Thi]C-OH; disulfide 1-6) | 190 µM | –
8 | N=C(N)NCCC[C@H](N)C(=O)N[C@H]1CSSC[C@@H](C(=O)O)NC(=O)[C@H](Cc2cccs2)NC(=O)[C@H](CC(=O)O)NC1=O [Peptide 101, RC*D(TA)C*] (H-RCD[2Thi]C-OH; disulfide 2-5) | 258 µM | –
9 | RC*D(TTC)C* [Peptide 122] | 6 µM | –
10 | N=C(N)NCCC[C@@H]1NC(=O)c2ccc(cc2)CNC(=O)[C@H](CC(=O)O)NC(=O)CNC1=O (cyclo(RGD[4Amb])) | – | IC50 [2]: 251 µM
11 | (FMOC)-RC*D(TTC)C* [Peptide 166] | – | 10 μM% (percentage inhibition at 10 μM) [1]: 18%; 200 μM% (percentage inhibition at 200 μM) [1]: 11%; IC50 ([1]; Jurkat-endothelial cell adhesion, peptides tested at 200, 40, 8, 1.6, 0.32, 0.064 μM): 0.9 µM
